Patent publication EP0222274A1, “2-Hydroxybenzamides” (NIHON TOKUSHU NOYAKU SEIZO K.K., priority 1985, dated 1987)

Key:
Rosellinia necatrix = assay: Control of root mould (Wurzelschimmel) in apple, cut twigs in infected soil; type: in vivo; details: Konzentration des Wirkstoffs 0,1 %; 5 ml per 100 ml soil; apple twigs (Star King), 3 weeks at 25°C; score 0 (kein Befall) to 5
From the text: (§1) Aktive Verbindung: 50 Gew.-Teile; Träger: 45 Gew.-Teile einer Mischung aus Diatomeenerde und Kaolin (1:5), Emulgator: 5 Gew.Teile Polyoxyethylenalkylphenylether.
(§2) Die aktive Verbindung, der Träger und der Emulgator in den oben angegebenen Mengen wurden pulverisiert und miteinander zu einem benetzbaren Pulver vermischt. Eine vorher festgegegte Menge des benetzbaren Pulvers wurde mit Wasser vermischt.
Test der Bekämpfung des Wurzelschimmels beim Apfel
In Reiskleie kultivierter Rosellinia necatrix wurde in sterilisierte Erde inokuliert, um eine infizierte Erde herzustellen. Eine wie in Beispiel 5 präparierte aktive Verbindung in vorher festgelegter Konzentration wurde in einer Menge von 5 ml pro 100 ml Erde gleichmäßig in die Erde hineingegossen und ausreichend mit dieser ver mischt. Abgeschnittene Apfelzweige (Varietät: Star King) wurden senkrecht in der Erde eingebettet, so daß die Hälfte jedes Zweiges in der Erde steckte. Die Zweige wurden dann unter Gewächshaus-Bedingungen bei 25°C gehalten. Drei Wochen später wurde der Grad des Befalls der Zweige durch den oben bezeichneten Pilz beurteilt und nach dem Grad der Verletzung anhand der folgenden […] bewertet:
0: Kein Befall; 1: geringfügiger Befall wurde beobachtet; 2: Befall wurde beobachtet auf 3 % bis weniger als 10 % der Oberfläche der Zweige; 3: Befall wurde beobachtet auf 10 % bis weniger als 30 % der Oberfläche der Zweige; 4: Befall wurde beobachtet auf 30 % bis weniger als 50 % der Oberfläche der Zweige; 5: Befall wurde beobachtet auf wenigstens 50 % der Oberfläche der Zweige.

Rhizopus oryzae = assay: Control of damping-off of rice seedlings, soil drench; type: in vivo; details: 500 ml per box, rice (Kusabue)
From the text: Test der Bekämpfung des Umfallens von Reis-Setzlingen (Wurzelbrand der Keimpflanzen)
Präparat einer Test-Verbindung:
as §1, §2
Sterilisierte Erde wurde mit in Reiskleie kultiviertem Rhizopus oryzae inokuliert. Die Erde wurde in Anzuchtkästen für Sämlinge (60 cm x 40 cm x 3 cm) eingefüllt. Die wie oben angegeben präparierte aktive Verbindung wurde in vorher festgelegter Konzentration in einer Menge von 500 ml pro Kasten gleichmäßig in die Erde hineingegossen. Samen von Reis (Varietät: Kusabue) wurden in einer Menge von 200 g (Trockengewicht) pro Kasten ausgesät und drei Tage in einer Anzucht-Vorrichtung bei 32°C kultiviert. Danach wurden die Anzucht-Kästen in ein Glashaus überführt und in üblicher Weise gehalten. 20 Tage später wurden 200 Setzlinge aus der Mitte jedes Anzuchtkastens herausgezogen, und der Grad der Verletzung wurde nach dem folgenden Maßstab bewertet. Der Bekämpfungs-Index und das Verhältnis der gesunden Setzlinge wurden berechnet.
Grad der Verletzung: 0: n₀ = gesunde Setzlinge; 1: n₁ = Setzlinge, bei denen das Wachstum der Haarwurzeln in geringem Maße schlecht war; 2: n₂ = Setzlinge, bei denen eine keulenartige Verformung teilweise an den Pfahlwurzeln beobachtet wurde; 3: n₃ = Setzlinge, bei denen das Wachstum der Pfahlwurzeln außerordentlich schlecht war und viele keulenartige Verformungen auftraten; 4: n₄ = Setzlinge, die keulenartig geworden waren, mit gehemmtem Wachstum der Pfahlwurzeln und Deckwurzeln.

[1] = tested on: "Komatsuna" (einer Varietät chinesischen Kohls); assay: Phytotoxicity to "Komatsuna" in the clubroot control test; type: in vivo, "Komatsuna" (Varietät: Misugi)
From the text: (§3) Test der Bekämpfung von Kohlhernie bei "Komatsuna" (einer Varietät chinesischen Kohls):
(§4) Aktive Verbindung: 1,5 Teile; Isopropylhydrogenphosphat (PAP): 0,5 Teile; Ton-Pulver: 98 Teile.
(§5) Die oben angegebenen Stoffe wurden pulverisiert und vermischt, wodurch ein Stäubemittel erhalten wurde.
(§6) Mit Plasmodiophora brassicae infizierte Erde wurde in unglasierte Töpfe mit einem Durchmesser von 21 cm gefüllt, und ein Stäubemittel einer Verbindung gemäß der vorliegenden Erfindung, das wie oben angegeben hergestellt worden war, wurde in einer vorher festgelegten Konzentration gleichmäßig mit der Erde vermischt.
(§7) Samen von "Komatsuna" (Varietät: Misugi) wurden in einer Menge von 20 Körnern pro Topf eingesät. Die Töpfe wurden 4 Wochen in einem auf 20°C gehaltenen klimatisierten Gewächshaus gehalten. Dann wurden die Pflanzen ausgegraben, und der Krankheitszustand wurde nach dem folgenden Maßstab bewertet. Der Erkrankungs-Index und das Verhältnis der erkrankten Pflanzen wurden berechnet.

Plasmodiophora brassicae = assay: Control of clubroot (Kohlhernie) in "Komatsuna" grown in infected soil, dust mixed into soil; type: in vivo; details: 4 weeks at 20°C
From the text: as §3
Präparat einer aktiven Verbindung:
as §4, §5, §6, §7
3: L₁ = Zahl der Pflanzen, deren Wurzeln durch das Auftreten der Kohlhernie (Kropfkrankheit) sehr stark vergrößert worden waren; 2: L₂ - Zahl der Pflanzen, bei denen Kohlhernie auftrat, jedoch auf die Pfahlwurzeln beschränkt war; 1: L₃ = Zahl der Pflanzen, bei denen geringsfügiges Auftreten von Kohlhernie beobachtet wurde; 0: L₄ = Zahl der gesunden Pflanzen. [formula]

[2] = Konzentration des Wirkstoffs 0,1 %
[3] = Konzentration des Wirkstoffs 0,15 %

Row | Structure (SMILES) | Grad der der Verletzung (Rosellinia necatrix) | Bekämpfungs-Index (Rhizopus oryzae; [2]) [%] | Grad der Verletzung (Rhizopus oryzae; [2]) | Verhältnis der gesunden Setzlinge (Rhizopus oryzae; [2]) | Phytotoxizität ([1]; Menge des Wirkstoffs 5 kg/ha) | Erkrankungs-Index (Plasmodiophora brassicae; Menge des Wirkstoffs 5 kg/ha) | Verhältnis der erkrankten Pflanzen (Plasmodiophora brassicae; Menge des Wirkstoffs 5 kg/ha) [%] | further results
1 | CCOC(NC(=O)c1ccccc1O)C(Cl)(Cl)Cl (centres unmarked) [A-1, reference compound] | 3 | 43 | 28,3% | 35,5% |  |  |  | Phytotoxizität ([1]; Menge des Wirkstoffs 20 kg/ha): keine
2 | O=C(NC(OCCBr)C(Cl)(Cl)Cl)c1ccccc1O (centres unmarked) [B-1, reference compound] |  | 60 | 19,6% | 55,5% |  |  |  | Phytotoxizität ([1]; Menge des Wirkstoffs 20 kg/ha): keine
3 | CCCCNC(=O)n1c(NC(=O)OC)nc2ccccc21 [Benomyl handelsüblich, Methyl-1-(butylcarbamoyl)-2-benzimidazolcarbamat, reference compound] | 1 |  |  |  |  |  |  | 
4 | O=[N+]([O-])c1c(Cl)c(Cl)c(Cl)c(Cl)c1Cl [PCNB handelsüblich, Pentachloronitrobenzol, reference compound] |  |  |  |  |  |  |  | Phytotoxizität ([1]; Menge des Wirkstoffs 60 kg/ha): keine; Erkrankungs-Index (Plasmodiophora brassicae; Menge des Wirkstoffs 60 kg/ha): 58,3%; Verhältnis der erkrankten Pflanzen (Plasmodiophora brassicae; Menge des Wirkstoffs 60 kg/ha): 75%
5 | N#Cc1c(Cl)c(Cl)c(Cl)c(C#N)c1Cl [TPN handelsüblich, Tetrachloroisophthalsäurenitril, reference compound] |  |  |  |  |  |  |  | Bekämpfungs-Index (Rhizopus oryzae; [3]): 85%; Grad der Verletzung (Rhizopus oryzae; [3]): 7,3%; Verhältnis der gesunden Setzlinge (Rhizopus oryzae; [3]): 75,5%
6 | CCOC(NC(=O)c1cc(Cl)ccc1O)C(Cl)(Cl)Cl (centres unmarked) [Verbindung 1, N-(2,2,2-Trichloro-1-ethoxyethyl)-5-chloro-2-hydroxybenzamid] |  |  |  |  | keine | 0% | 0 | 
7 | C=CCOC(NC(=O)c1cc(Cl)ccc1O)C(Cl)(Cl)Cl (centres unmarked) [Verbindung 2, N-(2,2,2-Trichloro-1-allyloxyethyl)-5-chloro-2-hydroxybenzamid] |  | 95 | 2,7% | 90,5% | keine | 0% | 0 | 
8 | O=C(NC(OCC(F)(F)F)C(Cl)(Cl)Cl)c1cc(Cl)ccc1O (centres unmarked) [Verbindung 4, N-[2,2,2-Trichloro-1-(2,2,2-trifluoroethoxy)ethyl]-5-chloro-2-hydroxybenzamid] |  | 95 | 2,5% | 91,5% | keine | 0% | 0 | 
9 | O=C(NC(OCC(F)(F)F)C(Cl)(Cl)Cl)c1cc(Br)ccc1O (centres unmarked) [Verbindung 8] | 0,5 |  |  |  | keine | 1,3% | 7 | 
10 | CC(=O)Oc1ccc(Cl)cc1C(=O)NC(OCC(F)(F)F)C(Cl)(Cl)Cl (centres unmarked) [Verbindung 12] | 0 | 94 | 3,0% | 90,5% | keine | 0% | 0 | 
11 | COC(NC(=O)c1cc(Cl)ccc1O)C(Cl)(Cl)Cl (centres unmarked) [Verbindung 13] | 0,5 | 94 | 3,0% | 85,0% |  |  |  | 
12 | CCOC(NC(=O)c1cc(Cl)ccc1OC(C)=O)C(Cl)(Cl)Cl (centres unmarked) [Verbindung 20, N-(2,2,2-Trichloro-1-ethoxyethyl)-2-acetoxy-5-chlorobenzamid] | 0,3 |  |  |  |  |  |  | 
